Here are results for 19 compounds from US20110039847A1, “AMIDE DERIVATIVES AS SIRTUIN MODULATORS” (Sirtris Pharmaceuticals, Inc, priority 2007, published 2011).

The target in this test is T1, SIRT1 (Homo sapiens, UniProt Q96EB6).
T1 sequence (Q96EB6 1-747): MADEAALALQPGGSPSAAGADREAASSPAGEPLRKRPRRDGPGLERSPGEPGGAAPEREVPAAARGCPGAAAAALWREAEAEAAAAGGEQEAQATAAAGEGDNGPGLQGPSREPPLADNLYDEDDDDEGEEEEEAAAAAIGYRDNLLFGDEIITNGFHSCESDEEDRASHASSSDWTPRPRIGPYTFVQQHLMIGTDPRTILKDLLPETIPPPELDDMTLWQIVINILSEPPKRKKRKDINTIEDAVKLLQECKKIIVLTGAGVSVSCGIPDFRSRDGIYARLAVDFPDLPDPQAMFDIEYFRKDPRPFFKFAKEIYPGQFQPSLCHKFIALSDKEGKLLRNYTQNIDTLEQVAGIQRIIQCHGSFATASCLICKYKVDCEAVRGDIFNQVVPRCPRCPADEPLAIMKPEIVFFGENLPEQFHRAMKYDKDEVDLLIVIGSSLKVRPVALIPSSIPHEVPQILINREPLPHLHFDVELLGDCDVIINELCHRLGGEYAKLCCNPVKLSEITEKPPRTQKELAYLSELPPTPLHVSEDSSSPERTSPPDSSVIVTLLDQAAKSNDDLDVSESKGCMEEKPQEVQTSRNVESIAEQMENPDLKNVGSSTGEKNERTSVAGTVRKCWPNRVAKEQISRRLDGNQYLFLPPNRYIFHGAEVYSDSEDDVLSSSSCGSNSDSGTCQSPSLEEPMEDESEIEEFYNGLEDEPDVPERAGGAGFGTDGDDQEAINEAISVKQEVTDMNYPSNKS
The test is described as follows: Mass spectrometry based SIRT1 deacetylation (activation) assay. In kind it is biochemical. The following applies: 0.5 μM peptide substrate, 120 μM βNAD+, 10 nM SIRT1, 25 min at 25° C.; for Emax: 25 min, read-out: % Fold Act. (percent maximum fold activation).

As to `CCN(CCN(C)C)c1cc(C(=O)Nc2ccccc2C(=O)Nc2ccccc2C(N)=O)nc(-c2ccccc2)n1` [Compound 160, N-(2-(2-carbamoylphenylcarbamoyl)phenyl)-6-((2-(dimethylamino)ethyl)(ethyl)amino)-2-phenylpyrimidine-4-carboxamide], the EC1.5 result is recorded as “A (EC1.5≦1 uM)” and the Emax was at least 300%.
Turning to `CN(C)CCNc1cc(C(=O)Nc2ccccc2C(=O)Nc2cc(Cl)ccc2Cl)nc(-c2ccccc2)n1` [Compound 161, N-(2-(2,5-dichlorophenylcarbamoyl)phenyl)-6-(2-(dimethylamino)ethylamino)-2-phenylpyrimidine-4-carboxamide], the EC1.5 result is “B (EC1.5>1 and ≦10 uM)”; the Emax is 150 to 300%.
Consider `CN(C)CCNc1cc(C(=O)Nc2ccccc2C(=O)Nc2c(Cl)cccc2Cl)nc(-c2ccccc2)n1` [Compound 162, N-(2-(2,6-dichlorophenylcarbamoyl)phenyl)-6-(2-(dimethylamino)ethylamino)-2-phenylpyrimidine-4-carboxamide], for which the EC1.5 entry is “A (EC1.5≦1 uM)” and the Emax is at least 300%.
`CN(C)CCNc1cc(C(=O)Nc2ccccc2C(=O)Nc2ccccc2S(C)(=O)=O)nc(-c2ccccc2)n1` [Compound 163, 6-(2-(dimethylamino)ethylamino)-N-(2-(2-(methylsulfonyl)phenylcarbamoyl)phenyl)-2-phenylpyrimidine-4-carboxamide]: the EC1.5 entry was “B (EC1.5>1 and ≦10 uM)”; the Emax is 150 to 300%.
Regarding `CCN(CCN(C)C)c1cc(C(=O)Nc2ccccc2C(=O)NC2CCC2)nc(-c2ccccc2)n1` [Compound 164, N-(2-(cyclobutylcarbamoyl)phenyl)-6-((2-(dimethylamino)ethyl)(ethyl)amino)-2-phenylpyrimidine-4-carboxamide], the EC1.5 result is listed as “A (EC1.5≦1 uM)” and the Emax is at least 300%.
As to `CCN(CCN(C)C)c1cc(C(=O)Nc2ccccc2C(=O)NC2CCCCC2)nc(-c2ccccc2)n1` [Compound 165, N-(2-(cyclohexylcarbamoyl)phenyl)-6-((2-(dimethylamino)ethyl)(ethyl)amino)-2-phenylpyrimidine-4-carboxamide], the EC1.5 result is recorded as “A (EC1.5≦1 uM)” and the Emax fell in the range of 150 to 300%.
Take `CCN(CCN(C)C)c1cc(C(=O)Nc2ccccc2C(=O)NC2CCN(C(=O)OC(C)(C)C)CC2)nc(-c2ccccc2)n1` [Compound 166, tert-butyl 4-(2-(6-((2-(dimethylamino)ethyl)(ethyl)amino)-2-phenylpyrimidine-4-carboxamido)benzamido)piperidine-1-carboxylate]: the EC1.5 result was “B (EC1.5>1 and ≦10 uM)”; the Emax fell in the range of 150 to 300%.
As for `CCN(CCN(C)C)c1cc(C(=O)Nc2ccccc2C(=O)NC2CCNCC2)nc(-c2ccccc2)n1` [Compound 167, 6-((2-(dimethylamino)ethyl)(ethyl)amino)-2-phenyl-N-(2-(piperidin-4-ylcarbamoyl)phenyl)pyrimidine-4-carboxamide], the EC1.5 result is “A (EC1.5≦1 uM)” and the Emax is at least 300%.
The corresponding values for `CCN(CCN(C)C)c1cc(C(=O)Nc2ccccc2C(=O)NC2CC2)nc(-c2ccccc2)n1` [Compound 168, N-(2-(cyclopropylcarbamoyl)phenyl)-6-((2-(dimethylamino)ethyl)(ethyl)amino)-2-phenylpyrimidine-4-carboxamide] are “A (EC1.5≦1 uM)” and 150 to 300%.
`CCN(CCN(C)C)c1cc(C(=O)Nc2ccccc2C(=O)NC2CCCC2)nc(-c2ccccc2)n1` [Compound 169, N-(2-(cyclopentylcarbamoyl)phenyl)-6-((2-(dimethylamino)ethyl)(ethyl)amino)-2-phenylpyrimidine-4-carboxamide]: the EC1.5 entry was “B (EC1.5>1 and ≦10 uM)”; the Emax is at least 300%.
Take `CCN(CCN(C)C)c1cc(C(=O)Nc2ccccc2C(=O)N[C@@H]2CCCC[C@@H]2O)nc(-c2ccccc2)n1` [Compound 170, 6-((2-(dimethylamino)ethyl)(ethyl)amino)-N-(2-((1R,2S)-2-hydroxycyclohexylcarbamoyl)phenyl)-2-phenylpyrimidine-4-carboxamide]: the EC1.5 result was “A (EC1.5≦1 uM)” and the Emax was at least 300%.
The corresponding values for `CCN(CCN(C)C)c1cc(C(=O)Nc2ccccc2C(=O)N[C@@H]2CCCC[C@H]2O)nc(-c2ccccc2)n1` [Compound 171, 6-((2-(dimethylamino)ethyl)(ethyl)amino)-N-(2-((1R,2R)-2-hydroxycyclohexylcarbamoyl)phenyl)-2-phenylpyrimidine-4-carboxamide] are “A (EC1.5≦1 uM)” and at least 300%.
With `CCN(CCN(C)C)c1cc(C(=O)Nc2ccccc2C(=O)NC2CCCN(C(=O)OC(C)(C)C)C2)nc(-c2ccccc2)n1` (centres unmarked) [Compound 172, tert-butyl 3-(2-(6-((2-(dimethylamino)ethyl)(ethyl)amino)-2-phenylpyrimidine-4-carboxamido)benzamido)piperidine-1-carboxylate], the EC1.5 entry was “B (EC1.5>1 and ≦10 uM)”; the Emax was 150 to 300%.
As for `CCN(CCN(C)C)c1cc(C(=O)Nc2ccccc2C(=O)NC2CCN(C(=O)OC(C)(C)C)C2)nc(-c2ccccc2)n1` (centres unmarked) [Compound 173, tert-butyl 3-(2-(6-((2-(dimethylamino)ethyl)(ethyl)amino)-2-phenylpyrimidine-4-carboxamido)benzamido)pyrrolidine-1-carboxylate], the EC1.5 entry was “B (EC1.5>1 and ≦10 uM)”; the Emax was at least 300%.
As for `CCN(CCN(C)C)c1cc(C(=O)Nc2ccccc2C(=O)NC2CCCNC2)nc(-c2ccccc2)n1` (centres unmarked) [Compound 174, 6-((2-(dimethylamino)ethyl)(ethyl)amino)-2-phenyl-N-(2-(piperidin-3-ylcarbamoyl)phenyl)pyrimidine-4-carboxamide], the EC1.5 entry is “B (EC1.5>1 and ≦10 uM)”; the Emax was at least 300%.
Turning to `CCN(CCN(C)C)c1cc(C(=O)Nc2ccccc2C(=O)NC2CCNC2)nc(-c2ccccc2)n1` (centres unmarked) [Compound 175, 6-((2-(dimethylamino)ethyl)(ethyl)amino)-2-phenyl-N-(2-(pyrrolidin-3-ylcarbamoyl)phenyl)pyrimidine-4-carboxamide], the EC1.5 result is “A (EC1.5≦1 uM)” and the Emax is at least 300%.
For the compound `O=C(Nc1ccccc1C(=O)c1nccs1)c1cc(N2CCOCC2)nc(-c2ccccc2)n1` [Compound 176], the EC1.5 entry was “A (EC1.5≦1 uM)” and the Emax was 150 to 300%.
On to `CCN(CCN(C)C)c1cc(C(=O)Nc2ccccc2C(=O)c2nccs2)nc(-c2ccccc2)n1` [Compound 177], for which the EC1.5 result is “A (EC1.5≦1 uM)” and the Emax is at least 300%.
For `CN(C)CCN(C)c1cc(C(=O)Nc2ccccc2-c2nnc(-c3ccccc3)s2)nc(-c2ccccc2)n1` [Compound 179], in that order: “C (EC1.5>10 uM)” and 150 to 300%.
